This note sets out measurements from patent US11690824B2, “Antibacterial compounds” (THE GENERAL HOSPITAL CORPORATION, priority 2018, dated 2023).

Molecules are shown by their SMILES. In brackets after ≈: the same amount, converted by molar mass. Read-outs that look alike come from different tables or passages of the source.

Series [1] is described as follows: Hepatic and renal toxicities (serum ALT, BUN) in the mouse thigh infection model. Conditions: 5 days. The protocol:
Deep-seated mouse thigh infection model. In vivo efficacy of nTZDpa alone or in combination with gentamicin against MRSA persisters was evaluated by a previously described neutropenic mouse thigh infection model with modifications. Six-week-old female CD-I mice (20-25 g, Charles River Laboratories, Wilmington, Mass., USA) were obtained from Charles River Laboratories (Wilmington, Mass., USA). The CD-I mice were rendered neutropenic by administering 150 mg/kg and 100 mg/kg of cyclophosphamide intraperitoneally (i.p.) at 4 days and 1 day before infection, respectively. On the day of infection, overnight culture of MRSA MVV2 was washed 3-time with sterile saline and diluted to 10^7 CFU/ml in the saline. 50 μl of the diluted culture (5×10^5 CFU per mouse) was injected to the right thigh of each mouse. nTZDpa was dissolved in Kolliphor EL (Sigma-Aldrich, St Louis, Mo., USA)/ethanol 1:1 and then diluted 1:10 in saline to a final concentration of 50 mg/kg. At 24 h post-infection, groups of mice (n=10) were treated with 30 mg/kg gentamicin subcutaneously (s.c.) every 12 h, 25 mg/kg vancomycin i.p. every 24 h, 50 mg/kg nTZPpa i.p. every 24 h, or the combination of 50 mg/kg nTZDpa i.p. every 24 h and 30 mg/kg gentamicin s.c. every 12 h for 5 days. Control mice were injected with 250 μl of 10% Kolliphor EL/ethanol in saline i.p. every 24 h for 5 days. Mice were euthanized at 96 h post-infection. Blood was collected by cardiac puncture, and the infected thighs were aseptically excised, weighed, and stored at 4° C. until homogenization. To evaluate hepatic and renal toxicities, the levels of alanine aminotransferase and blood urea nitrogen were analyzed with commercially available kits, following the manufacturer's protocol (Pointe Scientific, Canton, Mich., USA). Thighs were homogenized in PBS, serially diluted with PBS, and spot-plated on TSA plates. After incubating the TSA plates at 37° C. overnight, the number of colonies were enumerated to calculate CFU/g thigh tissue. This study and all experiments were performed in accordance with guidelines approved by the Rhode Island Hospital Institutional Animal Care and Use Committee (RIH IACUC). Statistical significance among each group was analyzed by one-way ANOVA with post-hoc Tukey test using PASW Statistics 18 (SPSS Inc. Chicago, Ill., USA).

The subject of another series is S. aureus ATCC 33591. Description: MIC assay. In kind it is cell-based. Conditions: Staphylococcus aureus, ATCC33591; S. aureus ATCC 33591; read-out: Minimum inhibitory concentration. From the text:
(§1) Bacterial strains, growth conditions, and persister isolation. Methicillin-resistant S. aureus strains, MW2 BAA-1707, ATCC 33591, and JE2, methicillin-susceptible S. aureus strains, NCTC 8325, Newman, and ATCC 29213, vancomycin-resistant S. aureus strain, VRS1, Enterococcus faecium E007, vancomycin-resistant E. faecium strains, C68,^7 WB312, and WC196, Klebsiella pneumoniae WGLW2 (BEI Resources, Manassas, Va., USA), Acinetobacter baumannii ATCC 17978, Pseudomonas aeruginosa PA14, and Enterobacter aerogenes ATCC 13048 were used to test antimicrobial activity (Table 1). S. aureus strains were grown in tryptic soy broth (TSB) (BD, Franklin Lakes, N.J., USA), and E. faecium was grown in brain-heart infusion (BHI) broth (BD, Franklin Lakes, N.J., USA) at 37° C. K. pneumoniae, A. baumannii, P. aeruginosa, and E. aerogenes were grown in Luria Bertani (LB) broth (BD, Franklin Lakes, N.J., USA) at 37° C.
(§2) Minimal inhibitory concentration (MIC) assay. The MICS of antibiotics were determined by the standard micro-dilution method recommended by the Clinical and Laboratory Standards Institute. MIC assays were conducted in biological triplicate.

The subject of the next series is S. aureus Newman. The experiment in a line: MIC assay. In kind it is cell-based. Conditions: Staphylococcus aureus; S. aureus Newman; read-out: Minimum inhibitory concentration.
Description: as §1, §2

A further series deals with S. aureus JE2. The experiment in a line: MIC assay. In kind it is cell-based. The following applies: Staphylococcus aureus; S. aureus JE2; read-out: Minimum inhibitory concentration.
Description: as §1, §2

Another series relates to S. aureus ATCC 29213. The experiment in a line: MIC assay. The series is classed as cell-based. Conditions: Staphylococcus aureus, ATCC29213; S. aureus ATCC 29213; read-out: Minimum inhibitory concentration.
Description: as §1, §2

For series [2], the system named is MRSA MW2 persisters (stationary phase). Description: Persister killing assay. In kind it is cell-based, S. aureus. Here is the method:
Persister killing assay. […] Persister cells of MRSA MW2 were prepared by growing cultures overnight to stationary phase at 37° C. at 200 rpm and washing 3 times with PBS. 1 mL of ˜2×10^8 CFU/mL MRSA persisters was added to 1 mL of PBS containing 2-fold of the desired concentration of antibiotics in a 96-well assay block (Corning Costar 3960). The assay block was incubated at 37° C., with shaking at 200 rpm. At specific times, […] were removed, washed once with PBS, serially diluted and spot-plated on TSA plates. Colonies were counted to enumerate the number of live cells after overnight incubation at 37° C. These experiments were conducted in biological triplicate.

The test system of a further series is human erythrocytes. The experiment in a line: Human blood hemolysis. The series is classed as cell-based. Here is the method: Human blood hemolysis. Hemolytic activity was evaluated as described in a previous study. Briefly, 100 μL of 4% human erythrocytes (Rockland Immunochemicals, Limerick, Pa., USA) was added to 100 μL of 2-fold serial dilutions of compounds in PBS, 0.2% DMSO (negative control), or 2% Triton-X 100 (positive control) in a 96-well plate. The 96-well plate was incubated at 37° C. for 1 h and then centrifuged at 500× g for 5 min. 50 μL of the supernatant was transferred to a fresh 96-well plate, and absorbance of supernatants was measured at 540 nm. Percent hemolysis was calculated using the following equation: (A540 nm of compound treated sample−A540 nm of 0.1% DMSO treated sample)/(A540 nm of 1% Triton X-100 treated sample−A540 nm of 0.1% DMSO treated sample)×100. HC50 (concentration of a compound causing 50% hemolysis) was determined using SigmaPlot 10.0 (Systat Software Inc., San Jose, Calif., USA).

Another series relates to S. aureus (MRSA) MW2. The experiment in a line: Minimal inhibitory concentration (MIC) assay, micro-dilution. The series is classed as cell-based. The following applies: for MIC: Staphylococcus aureus. The method in brief:
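Strains were grown at 37° C (S. aureus in TSB, E. faecium in BHI broth). MICs were then determined by standard CLSI broth micro-dilution. Each assay was repeated in biological triplicate.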
In general terms: In broth dilution the organism is exposed to a series of concentrations in liquid medium.

[3] abbreviates: nTZDpa 50 mg/kg with gentamicin 30 mg/kg.

Regarding `O=C(O)c1c(Sc2ccccc2)c2cc(Cl)ccc2n1Cc1ccc(Cl)cc1` [nTZDpa], the BUN result in series [1] (setting [3]) is “not increasing ALT or BUN”; in series [1] (nTZDpa alone 50 mg/kg i.p.) it was “did not increase serum levels of ALT or BUN”. The “serum ALT” value is “not increasing ALT or BUN” in series [1] (setting [3]) and “did not increase serum levels of ALT or BUN” in series [1] (nTZDpa alone 50 mg/kg i.p.). In addition, the MIC with S. aureus ATCC 33591 came to 4 µg/mL (≈ 9.34 µM); with S. aureus Newman, 4 µg/mL (≈ 9.34 µM); in the series on S. aureus JE2, 4 µg/mL (≈ 9.34 µM); with S. aureus ATCC 29213, 4 µg/mL (≈ 9.34 µM); with S. aureus (MRSA) MW2 (S. aureus (MRSA) MW2, read-out: Minimum inhibitory concentration), 4 µg/mL (≈ 9.34 µM); in the series with S. aureus (MRSA) MW2 (Table 3, growing MRSA, read-out: MIC), 4 µg/mL (≈ 9.34 µM). Besides, the persister killing in series [2] (8 μg/ml nTZDpa and 80 μg/ml gentamicin) is recorded as 3 logs. Besides, the “time to eradicate 100% of persisters” value in series [2] (16 μg/ml nTZDpa and 10 μg/ml gentamicin) is no more than 3 h. Moreover, the “killing of MRSA persisters in combination” value in series [2] (16 μg/ml nTZDpa combined with 10× MIC of other aminoglycosides) is given as “synergistic killing of MRSA persisters”. Also, in series [2] (32 μg/mL), the “reduction of MRSA persisters” value is listed as roughly 2 log. For the same molecule, in series [2] (64 μg/mL, ~5×10^7 CFU/mL), the “time to complete eradication of persisters” value was no more than 2 h. Moreover, the “hemolysis of human erythrocytes” value in the series with human erythrocytes (32 μg/ml) is reported as less than 25%. For the same molecule, in the series with human erythrocytes (at or below 16 μg/mL), the “toxicity to human erythrocytes” value is listed as “did not show significant toxicity”. Also, the “HC50: median hemolytic concentration” value with human erythrocytes (human erythrocytes) came to 47 µg/mL. The “MIC relative to MIC of vancomycin” value in the series with S. aureus (MRSA) MW2 (fold higher) was 4 fold.
